Laboratory results from patent US8415469B2, “Compounds and methods for kinase modulation, and indications therefor” (Plexxikon Inc., priority 2005, dated 2013).

What was measured:
[1] = tested on: human gastric cancer cell line MKN28; details: cited from earlier work
[2] = biological target: T1, FGFR1 (Homo sapiens, UniProt P11362, C488A/C584S); assay: AlphaScreen kinase assay, FGFR1; type: biochemical; details: read-out: IC50, activity toward kinase FGFR
T1 construct: P1351.pET N6 BI-PTP FGFR A458-E765-X C488A, C584S; made in house; host or cells: E. coli (PTP1B co-expressed)

[3] = biological target: T2, Ret (Homo sapiens, UniProt P07949); assay: AlphaScreen kinase assay, Ret; type: biochemical; details: read-out: IC50, activity toward kinase Ret
T2 construct: P1378.pET-SF BI-PTP RET H661-R1012 HIS; made in house
T2 sequence (P07949 with tags, fused parts or gaps): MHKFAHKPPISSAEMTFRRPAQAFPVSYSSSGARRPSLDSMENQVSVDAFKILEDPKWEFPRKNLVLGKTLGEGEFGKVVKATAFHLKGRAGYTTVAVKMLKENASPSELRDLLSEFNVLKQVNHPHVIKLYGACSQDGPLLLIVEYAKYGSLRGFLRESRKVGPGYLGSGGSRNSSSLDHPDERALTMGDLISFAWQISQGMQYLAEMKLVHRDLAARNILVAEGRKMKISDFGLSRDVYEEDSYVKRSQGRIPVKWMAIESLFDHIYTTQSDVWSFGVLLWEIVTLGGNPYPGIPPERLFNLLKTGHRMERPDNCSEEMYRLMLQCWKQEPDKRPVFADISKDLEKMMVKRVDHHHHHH

[4] = biological target: T3, Kit (Homo sapiens, UniProt P10721); assay: AlphaScreen kinase assay, Kit; type: biochemical; details: read-out: IC50, activity toward kinase Kit
T3 construct: P1332.N6 BI PTP KIT M552-K948-X COD; His6 (N); made in house; host or cells: E. coli (PTP1B co-expressed)
T3 sequence (P10721 with tags, fused parts or gaps): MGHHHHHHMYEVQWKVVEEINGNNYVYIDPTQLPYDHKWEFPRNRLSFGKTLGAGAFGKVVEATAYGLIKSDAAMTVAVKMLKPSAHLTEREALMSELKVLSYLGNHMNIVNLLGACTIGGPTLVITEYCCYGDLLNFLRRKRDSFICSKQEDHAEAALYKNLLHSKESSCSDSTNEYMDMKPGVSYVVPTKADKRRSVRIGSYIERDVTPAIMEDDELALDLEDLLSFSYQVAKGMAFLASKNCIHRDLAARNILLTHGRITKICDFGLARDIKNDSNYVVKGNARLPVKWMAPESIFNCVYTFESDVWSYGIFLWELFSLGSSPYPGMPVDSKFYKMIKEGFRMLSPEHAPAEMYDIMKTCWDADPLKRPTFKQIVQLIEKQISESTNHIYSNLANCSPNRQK

[5] = biological target: T4, Flt4 (Homo sapiens, UniProt P35916); assay: AlphaScreen kinase assay, Flt4; type: biochemical; details: read-out: IC50, activity toward kinase Flt4
T4 construct: purchased ProQinase GmbH (Freiburg, Germany)
Summary of the method: (§1)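 AlphaScreen, biotin-peptide substrate; streptavidin donor/anti-phospho acceptor beads; decreased emission = inhibition. Cpds 20 mM DMSO stock, 1:3 x 8 conc.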

[6] = biological target: T5, Kdr (Homo sapiens, UniProt P35968); assay: Z'-Lyte FRET kinase assay (Invitrogen), Kdr; type: biochemical; details: read-out: IC50, activity toward kinase Kdr
T5 construct: purchased Invitrogen (assay run by Invitrogen)
T5 sequence (P35968 20-1356): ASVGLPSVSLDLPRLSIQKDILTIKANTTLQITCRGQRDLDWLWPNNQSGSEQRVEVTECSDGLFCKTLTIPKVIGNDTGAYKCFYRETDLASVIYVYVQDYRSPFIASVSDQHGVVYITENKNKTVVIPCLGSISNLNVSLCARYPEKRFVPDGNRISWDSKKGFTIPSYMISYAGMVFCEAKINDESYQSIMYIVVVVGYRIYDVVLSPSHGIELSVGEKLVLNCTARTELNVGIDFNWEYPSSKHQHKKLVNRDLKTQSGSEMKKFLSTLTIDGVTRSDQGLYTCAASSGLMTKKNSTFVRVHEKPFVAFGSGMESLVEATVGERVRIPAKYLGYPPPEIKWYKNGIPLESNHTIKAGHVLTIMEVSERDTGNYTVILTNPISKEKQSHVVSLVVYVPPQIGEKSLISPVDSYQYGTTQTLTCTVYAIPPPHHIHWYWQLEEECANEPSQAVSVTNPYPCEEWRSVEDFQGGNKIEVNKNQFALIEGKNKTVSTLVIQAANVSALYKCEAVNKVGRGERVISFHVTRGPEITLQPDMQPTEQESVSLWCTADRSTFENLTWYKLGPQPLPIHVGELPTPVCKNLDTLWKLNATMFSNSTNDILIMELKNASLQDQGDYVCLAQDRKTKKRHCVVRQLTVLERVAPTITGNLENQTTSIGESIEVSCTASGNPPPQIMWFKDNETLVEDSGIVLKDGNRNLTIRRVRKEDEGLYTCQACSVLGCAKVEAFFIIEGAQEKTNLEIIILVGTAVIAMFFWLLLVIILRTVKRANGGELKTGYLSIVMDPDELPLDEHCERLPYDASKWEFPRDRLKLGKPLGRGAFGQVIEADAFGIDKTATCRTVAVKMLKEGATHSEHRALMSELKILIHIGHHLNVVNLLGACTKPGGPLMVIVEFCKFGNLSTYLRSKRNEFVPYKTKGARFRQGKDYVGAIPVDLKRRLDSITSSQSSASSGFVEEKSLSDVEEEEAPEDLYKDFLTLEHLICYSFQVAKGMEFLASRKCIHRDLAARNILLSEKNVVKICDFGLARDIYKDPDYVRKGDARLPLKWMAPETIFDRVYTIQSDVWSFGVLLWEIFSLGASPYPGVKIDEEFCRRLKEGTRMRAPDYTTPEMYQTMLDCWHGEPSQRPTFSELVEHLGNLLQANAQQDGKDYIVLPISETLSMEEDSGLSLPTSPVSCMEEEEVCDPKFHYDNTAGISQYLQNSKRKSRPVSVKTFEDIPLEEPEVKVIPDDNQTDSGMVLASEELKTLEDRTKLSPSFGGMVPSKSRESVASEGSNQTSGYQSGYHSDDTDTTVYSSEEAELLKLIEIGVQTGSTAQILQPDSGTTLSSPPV

[7] = biological target: T6, p38 (Homo sapiens, UniProt Q16539); assay: AlphaScreen kinase assay, p38; type: biochemical; details: read-out: IC50, activity toward kinase p38
T6 construct: P4292.pET15S P38A M1-S360-X MKK6DD; His6 with thrombin site (N); made in house
T6 sequence (Q16539 with tags, fused parts or gaps): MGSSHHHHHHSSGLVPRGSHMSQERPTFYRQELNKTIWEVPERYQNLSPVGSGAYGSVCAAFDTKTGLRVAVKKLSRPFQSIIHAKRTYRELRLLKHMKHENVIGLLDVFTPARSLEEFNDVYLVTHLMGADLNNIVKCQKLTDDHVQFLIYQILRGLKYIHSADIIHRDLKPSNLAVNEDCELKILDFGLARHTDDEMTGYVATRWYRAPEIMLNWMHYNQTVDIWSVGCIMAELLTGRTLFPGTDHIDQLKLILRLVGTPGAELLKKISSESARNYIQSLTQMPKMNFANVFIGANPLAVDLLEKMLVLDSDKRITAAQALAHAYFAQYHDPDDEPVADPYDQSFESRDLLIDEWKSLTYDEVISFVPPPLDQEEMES
Protocol: AlphaScreen assays were done using compounds dissolved in DMSO to a concentration of 20 mM. The compounds were diluted accordingly to the desired final concentrations in each sample well, using 1:3 serial dilution for a total of 8 concentration points. Plates were prepared such that each kinase reaction is 20 μl in 1× kinase buffer, 5% DMSO and 10 μM ATP. After incubation of the kinase reaction for 1 hour at room temperature, 5 μl of donor beads in stop buffer (50 mM EDTA in 1× kinase buffer) was added, the sample was mixed and incubated for 20 minutes at room temperature before adding 5 μl of acceptor beads in stop buffer. The samples were incubated for 60 minutes at room temperature and the signal per well was read on AlphaQuest reader.

[8] = biological target: T7, Abl (Homo sapiens, UniProt P00519); assay: AlphaScreen kinase assay, Abl; type: biochemical; details: read-out: activity toward kinase Abl, IC50
T7 construct: P1121. pET-SPEC BI-PTP Abl G227-V515-X; His6 (N); made in house; host or cells: E. coli (PTP1B co-expressed)
T7 sequence (P00519 with tags, fused parts or gaps): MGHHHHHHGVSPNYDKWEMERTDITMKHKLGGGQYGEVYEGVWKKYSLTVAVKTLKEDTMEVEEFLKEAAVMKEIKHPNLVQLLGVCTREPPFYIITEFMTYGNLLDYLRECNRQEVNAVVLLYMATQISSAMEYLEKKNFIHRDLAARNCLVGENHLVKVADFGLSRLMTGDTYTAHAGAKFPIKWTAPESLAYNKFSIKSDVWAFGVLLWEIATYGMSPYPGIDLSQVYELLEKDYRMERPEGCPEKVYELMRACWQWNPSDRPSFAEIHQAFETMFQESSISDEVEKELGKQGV
Summary of the method: as §1

[9] = biological target: T8, Flt1 (Homo sapiens, UniProt P17948); assay: AlphaScreen kinase assay, Flt1; type: biochemical; details: read-out: IC50, activity toward kinase Flt1
T8 construct: P1826.pETN6 BI-PTP FLT1 M799-D1165-X WT; His6 (N); made in house; host or cells: E. coli (PTP1B co-expressed)
T8 sequence (P17948 with tags, fused parts or gaps): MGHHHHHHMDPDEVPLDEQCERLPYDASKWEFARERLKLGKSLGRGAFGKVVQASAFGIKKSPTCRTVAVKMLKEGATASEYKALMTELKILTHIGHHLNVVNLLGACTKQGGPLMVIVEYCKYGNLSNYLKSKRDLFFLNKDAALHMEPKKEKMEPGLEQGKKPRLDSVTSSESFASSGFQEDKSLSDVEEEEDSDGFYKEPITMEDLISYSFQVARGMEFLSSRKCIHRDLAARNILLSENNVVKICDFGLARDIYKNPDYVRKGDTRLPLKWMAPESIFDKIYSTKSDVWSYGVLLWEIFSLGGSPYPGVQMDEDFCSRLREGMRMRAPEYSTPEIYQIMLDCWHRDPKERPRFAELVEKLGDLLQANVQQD

[10] = tested on: U87MG glioma cells; details: cited from earlier work
[11] = tested on: AML blasts harboring FLT3/ITD mutations; details: primary AML blasts harboring FLT3/ITD mutations; cited from earlier work
[12] = biological target: T9, B-Raf (Homo sapiens, UniProt P15056); assay: AlphaScreen kinase assay, B-Raf; type: biochemical; details: read-out: IC50, activity toward kinase B-Raf
T9 construct: purchased Upstate Biotechnology

[13] = biological target: T10, Flt3 (Homo sapiens, UniProt P36888); assay: Z'-Lyte FRET kinase assay (Invitrogen), Flt3; type: biochemical; details: read-out: IC50, activity toward kinase Flt3
T10 construct: purchased Invitrogen (assay run by Invitrogen)
T10 sequence (P36888 27-993): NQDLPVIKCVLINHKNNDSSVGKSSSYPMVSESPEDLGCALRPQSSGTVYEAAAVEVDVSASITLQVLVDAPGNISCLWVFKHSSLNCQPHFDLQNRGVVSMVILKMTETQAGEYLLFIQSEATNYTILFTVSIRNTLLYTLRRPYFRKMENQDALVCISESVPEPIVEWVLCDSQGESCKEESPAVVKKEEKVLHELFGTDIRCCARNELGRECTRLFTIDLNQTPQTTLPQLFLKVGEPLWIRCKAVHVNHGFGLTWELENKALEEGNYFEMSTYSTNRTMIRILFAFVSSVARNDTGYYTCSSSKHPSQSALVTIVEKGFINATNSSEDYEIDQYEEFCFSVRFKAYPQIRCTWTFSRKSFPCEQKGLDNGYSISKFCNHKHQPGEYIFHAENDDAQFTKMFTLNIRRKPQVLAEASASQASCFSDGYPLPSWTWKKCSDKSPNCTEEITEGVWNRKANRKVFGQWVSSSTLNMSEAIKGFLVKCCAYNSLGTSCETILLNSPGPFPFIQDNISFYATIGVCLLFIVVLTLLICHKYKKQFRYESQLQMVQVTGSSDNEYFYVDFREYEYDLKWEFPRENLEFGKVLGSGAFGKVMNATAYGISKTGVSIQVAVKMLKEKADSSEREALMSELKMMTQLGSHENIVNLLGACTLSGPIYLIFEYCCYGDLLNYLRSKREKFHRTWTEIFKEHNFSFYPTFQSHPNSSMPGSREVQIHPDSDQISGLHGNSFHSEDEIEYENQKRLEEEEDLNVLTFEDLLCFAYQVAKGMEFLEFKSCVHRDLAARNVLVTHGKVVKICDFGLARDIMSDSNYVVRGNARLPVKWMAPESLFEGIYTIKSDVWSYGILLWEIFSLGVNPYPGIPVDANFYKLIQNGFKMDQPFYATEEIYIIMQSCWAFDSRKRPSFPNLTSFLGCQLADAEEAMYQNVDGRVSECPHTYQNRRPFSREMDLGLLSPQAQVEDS
Excerpt: The effect of potential modulators of kinase activity can be measured in a variety of different assays known in the art. For example, direct radiometric, indirect FRET or AlphaScreen assays may be used to assess the level of phosphorylation of a substrate in the presence of test compounds in order to determine the inhibitory affect of the compound on the kinase. Invitrogen (Carlsbad, Calif.) uses a FRET based assay for Btk, EGFR, EphB2, Flt3, lrak4, Kdr, MAP2K1, MAPKAPK2, PDGFRB, PKC theta, Stk6 and Yes. For these assays, compounds of the invention were screened by Invitrogen using Z′-Lyte™ kinase assay.
Briefly, the Invitrogen kinase assay involves use of a specific peptide substrate optimized for each kinase, containing a fluorophore at each end that make up the FRET pair. The peptide sensitivity to proteolytic cleavage depends on phosphorylation of the peptide. Non-phosphorylated peptide is cleaved by a protease while peptide phosphorylated by the kinase is not cleaved. Cleavage of the peptide disrupts the FRET between the donor (coumarin) and acceptor (fluorescein) fluorophores, resulting in an increase in the ratio of donor emission to acceptor emission. The emission ratio of coumarin to fluorescein is used to assess the reaction progress. The extent of phosphorylation is determined from the emission ratio, which is low when the kinase is active (phosphorylated peptide is not cleaved, FRET pair connected) or higher for inhibited kinase (non-phosphorylated peptide is cleaved, FRET pair separated). Thus, the assay involves a kinase reaction in the presence of varying concentrations of a given compound, a development reaction with site specific protease, and detection of the fluorescent emission ratio of coumarin and fluorscein. […] Reaction conditions for each kinase are determined to provide optimal reaction times, incubation temperature, kinase and ATP concentrations. Test samples are made up in 1× kinase buffer (50 mM HEPES pH 7.5, 50 mM MgCl2, 5 mM EGTA, 0.05% BRIJ-35) and compound at desired concentration prepared in DMSO such that the final DMSO is 1%. […] Typically, assay plates are prepared to 10 μl final volume per sample, adding 2.5 μl of compound at 4× the desired concentration in 4% DMSO (serial dilution of compound provides concentration curve), 5 μl of the desired kinase mixed with Z′-LYTE™ peptide substrate (2× in 2× kinase buffer, final peptide at 2 μM), and 2.5 μl of 4×ATP solution. All kinase except for MAP2K1 were at 10 μM ATP in the kinase reaction, while MAP2K1 was at 100 μM. Samples are mixed and the kinase reaction is incubated 1 hour at room temperature, after which 5 μl of development solution is added and mixed. After incubation for another 1 hour at room temperature, 5 μl of stop reagent is added to each sample and mixed. The fluorescence signals are measured to determine the emission ratio.

[14] = biological target: ALK (Homo sapiens, UniProt Q9UM73); assay: AlphaScreen kinase assay, ALK; type: biochemical; details: read-out: IC50, activity toward kinase ALK
Excerpt: (§2) AlphaScreen assay was used to screen additional kinases. The assay is similarly dependent on the phosphorylation of a peptide substrate. In this assay, an antibody that recognizes phosphorylated substrate is bound to an acceptor bead. The peptide substrate is attached to biotin, which binds to a donor head that contains streptavidin. Thus phosphorylated substrate is bound by antibody and streptavidin, bringing the donor and acceptor heads into close proximity when kinase is not inhibited. The donor produces singlet oxygen which results in emission from the acceptor when they are in close proximity. Conversely, when kinase is inhibited, the donor and acceptor beads are not associated and the emission from the acceptor is reduced.
(§3) AlphaScreen assays were done using compounds dissolved in DMSO to a concentration of 20 mM. The compounds were diluted accordingly to the desired final concentrations in each sample well, using 1:3 serial dilution for a total of 8 concentration points.

[15] = biological target: TrkA (Homo sapiens, UniProt P04629); assay: AlphaScreen kinase assay, TrkA; type: biochemical; details: read-out: IC50, activity toward kinase TrkA
Chain of TrkA (P04629 33-796): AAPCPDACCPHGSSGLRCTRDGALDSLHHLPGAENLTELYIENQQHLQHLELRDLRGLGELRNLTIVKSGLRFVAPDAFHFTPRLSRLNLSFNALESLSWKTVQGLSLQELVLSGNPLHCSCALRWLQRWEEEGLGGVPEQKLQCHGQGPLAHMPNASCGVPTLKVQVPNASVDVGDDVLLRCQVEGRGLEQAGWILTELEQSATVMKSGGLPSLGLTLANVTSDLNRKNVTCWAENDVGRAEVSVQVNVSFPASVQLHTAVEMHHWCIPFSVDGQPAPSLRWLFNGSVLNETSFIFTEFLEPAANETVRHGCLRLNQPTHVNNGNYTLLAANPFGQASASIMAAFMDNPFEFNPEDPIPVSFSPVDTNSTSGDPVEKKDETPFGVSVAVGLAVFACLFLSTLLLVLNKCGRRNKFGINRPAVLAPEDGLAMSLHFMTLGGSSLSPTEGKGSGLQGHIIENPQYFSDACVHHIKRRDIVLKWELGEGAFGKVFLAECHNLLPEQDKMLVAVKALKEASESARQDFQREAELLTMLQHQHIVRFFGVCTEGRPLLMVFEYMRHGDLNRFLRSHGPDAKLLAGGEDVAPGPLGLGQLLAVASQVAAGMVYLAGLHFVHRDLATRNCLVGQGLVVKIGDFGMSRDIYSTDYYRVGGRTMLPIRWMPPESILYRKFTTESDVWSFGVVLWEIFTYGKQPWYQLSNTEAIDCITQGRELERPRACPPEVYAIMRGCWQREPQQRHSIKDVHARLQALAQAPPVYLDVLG
Excerpt: as §2, §3

[16] = biological target: Frk (Homo sapiens, UniProt P42685); assay: AlphaScreen kinase assay, Frk; type: biochemical; details: read-out: IC50, activity toward kinase Frk
Chain of Frk (P42685 whole entry): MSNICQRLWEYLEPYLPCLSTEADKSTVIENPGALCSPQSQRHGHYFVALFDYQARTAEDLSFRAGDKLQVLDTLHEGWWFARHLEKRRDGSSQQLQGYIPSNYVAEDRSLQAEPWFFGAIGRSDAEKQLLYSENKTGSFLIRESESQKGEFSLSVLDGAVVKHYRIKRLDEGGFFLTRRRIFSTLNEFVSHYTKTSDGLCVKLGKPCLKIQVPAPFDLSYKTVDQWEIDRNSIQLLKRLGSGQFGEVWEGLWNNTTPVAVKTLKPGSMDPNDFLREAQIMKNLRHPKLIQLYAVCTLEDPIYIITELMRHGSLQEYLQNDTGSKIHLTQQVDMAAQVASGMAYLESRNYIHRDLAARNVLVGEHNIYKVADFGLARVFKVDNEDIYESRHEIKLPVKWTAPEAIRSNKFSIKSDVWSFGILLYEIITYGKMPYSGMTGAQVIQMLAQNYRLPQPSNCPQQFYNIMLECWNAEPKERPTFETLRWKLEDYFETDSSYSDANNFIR
Excerpt: as §2, §3

[17] = biological target: T11, c-Raf-1 (Homo sapiens, UniProt P04049); assay: AlphaScreen kinase assay, c-Raf-1; type: biochemical; details: read-out: IC50, activity toward kinase c-Raf-1
T11 construct: purchased Upstate Biotechnology
T11 sequence (P04049 whole entry): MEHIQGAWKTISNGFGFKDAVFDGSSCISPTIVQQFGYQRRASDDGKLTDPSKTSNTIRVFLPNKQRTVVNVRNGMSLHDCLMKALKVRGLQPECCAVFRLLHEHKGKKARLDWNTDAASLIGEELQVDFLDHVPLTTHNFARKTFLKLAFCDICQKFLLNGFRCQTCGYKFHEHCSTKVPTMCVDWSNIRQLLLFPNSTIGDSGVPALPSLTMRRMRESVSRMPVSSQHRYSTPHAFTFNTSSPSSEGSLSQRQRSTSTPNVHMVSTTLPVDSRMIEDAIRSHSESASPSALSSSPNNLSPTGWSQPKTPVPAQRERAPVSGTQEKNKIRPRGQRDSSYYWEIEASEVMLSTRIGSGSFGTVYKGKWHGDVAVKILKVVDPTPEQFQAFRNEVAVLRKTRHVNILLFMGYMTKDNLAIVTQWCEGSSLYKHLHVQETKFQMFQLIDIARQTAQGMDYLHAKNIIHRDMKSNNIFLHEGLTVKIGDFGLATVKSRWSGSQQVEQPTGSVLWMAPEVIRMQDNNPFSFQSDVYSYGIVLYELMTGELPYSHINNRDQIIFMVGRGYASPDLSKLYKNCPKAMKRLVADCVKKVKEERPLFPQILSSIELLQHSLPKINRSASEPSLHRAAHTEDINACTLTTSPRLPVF

[18] = biological target: T12, B-Raf V600E (Homo sapiens, UniProt P15056, V600E); assay: AlphaScreen kinase assay, B-Raf V600E; type: biochemical; details: read-out: IC50, activity toward kinase B-Raf V600E
T12 construct: P4254. pFastBacBD-CDC37 BRAF D437-K722-X, V600E; His6 with pFastBac HT leader (TEV site) (N); made in house; host or cells: Sf9 (baculovirus; chaperone CDC37 co-expressed)
T12 sequence (P15056 with tags, fused parts or gaps V600E): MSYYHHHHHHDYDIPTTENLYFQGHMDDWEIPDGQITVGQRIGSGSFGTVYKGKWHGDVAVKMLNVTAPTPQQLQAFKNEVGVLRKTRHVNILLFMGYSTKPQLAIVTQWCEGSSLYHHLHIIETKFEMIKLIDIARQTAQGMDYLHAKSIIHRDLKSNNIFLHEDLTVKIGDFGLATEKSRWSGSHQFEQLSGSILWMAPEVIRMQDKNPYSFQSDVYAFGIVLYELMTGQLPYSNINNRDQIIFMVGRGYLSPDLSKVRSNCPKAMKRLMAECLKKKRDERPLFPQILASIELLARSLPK

[19] = biological target: Brk (Homo sapiens, UniProt Q13882); assay: AlphaScreen kinase assay, Brk; type: biochemical; details: read-out: IC50, activity toward kinase Brk
Chain of Brk (Q13882 whole entry): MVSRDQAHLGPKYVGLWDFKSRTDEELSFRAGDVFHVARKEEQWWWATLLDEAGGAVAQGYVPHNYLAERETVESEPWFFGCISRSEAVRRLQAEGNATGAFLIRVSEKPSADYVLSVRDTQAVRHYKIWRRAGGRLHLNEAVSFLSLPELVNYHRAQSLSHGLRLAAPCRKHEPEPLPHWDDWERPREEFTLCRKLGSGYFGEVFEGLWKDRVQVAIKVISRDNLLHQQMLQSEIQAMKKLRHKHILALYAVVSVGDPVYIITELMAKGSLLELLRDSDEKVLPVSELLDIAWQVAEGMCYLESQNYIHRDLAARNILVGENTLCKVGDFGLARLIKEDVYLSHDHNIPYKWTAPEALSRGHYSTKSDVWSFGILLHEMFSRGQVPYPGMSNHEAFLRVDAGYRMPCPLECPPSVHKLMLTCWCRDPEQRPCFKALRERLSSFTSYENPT
Excerpt: as §2, §3

For CS(=O)(=O)Nc1ccc([N+](=O)[O-])cc1OC1CCCCC1 [NS-398], the “proliferation and growth of MKN28 cells” value [1] is given as “significantly inhibit proliferation and growth”.
With O=C(c1ccccc1F)c1c[nH]c2ncc(-c3cccnc3)cc12 [Compound P-0708] the IC50 [2] was ≤ 10 µM, the IC50 [3] was ≤ 10 µM and the IC50 [4] was ≤ 10 µM. For the same molecule, the IC50 [5] was ≤ 10 µM, the IC50 [6] was ≤ 10 µM and the IC50 [7] was ≤ 10 µM. The IC50 [8] was ≤ 10 µM and the IC50 [9] was ≤ 10 µM.
For COc1ccc2c(c1)c(CC(=O)O)c(C)n2C(=O)c1ccc(Cl)cc1 [indomethacin], the “proliferation and growth of MKN28 cells” value [1] is listed as “significantly inhibit proliferation and growth”.
In the case of CN[C@@H]1C[C@H]2O[C@@](C)([C@@H]1OC)n1c3ccccc3c3c4c(c5c6ccccc6n2c5c31)C(=O)N[C@H]4O [UCN-01, 7-hydroxystaurosporine], the “increase of the cytotoxicity of TMZ” value ([10]; combined with temozolomide) is listed as 5 fold and the “toxicity of the inhibitor alone” value ([10]; without TMZ) is listed as “not in itself toxic”.
For Cc1cc2ncc(-c3ccccc3)nc2cc1C [AG1295], the “cytotoxicity to AML blasts” value [11] is listed as “specifically cytotoxic”.
For CCCS(=O)(=O)Nc1ccc(F)c(C(OC)c2c[nH]c3ncc(OC)cc23)c1F (stereo not drawn) [Compound P-1244, Propane-1-sulfonic acid {2,4-difluoro-3-[methoxy-(5-methoxy-1H-pyrrolo[2,3-b]pyridin-3-yl)-methyl]-phenyl}-amide], the IC50 [12] was ≤ 10 µM, the IC50 [13] was ≤ 10 µM and the IC50 [14] was ≤ 10 µM. For the same molecule, the IC50 [15] was ≤ 10 µM, the IC50 [16] was ≤ 10 µM and the IC50 [17] was ≤ 10 µM. For the same molecule, the IC50 [6] was ≤ 10 µM, the IC50 [18] was ≤ 10 µM and the IC50 [19] was ≤ 10 µM.
For Brc1ccc(/C=C\c2c[nH]c3ncccc23)cc1 [Compound P-0511], the IC50 [4] was ≤ 10 µM and the IC50 [7] was ≤ 10 µM.
